According to patent US12077503B2, “Substituted cyclic amides and their use as herbicides” (FMC CORPORATION, priority 2015, dated 2024):

How the values were obtained:
Type in all cases: in vivo
[1] = system: barnyardgrass (Echinochloa crus-galli); experiment: Test A preemergence
Summary of the method: (§1)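 Seeds sprayed preemergence with a directed soil spray, or plants at 2 to 10 cm height and one- to two-leaf stage sprayed postemergence, with test chemicals in a non-phytotoxic solvent mixture containing surfactant, in loam soil–sand blend. Injury rated visually against untreated controls after about 10 d in greenhouse, 0 (no effect) to 100 (complete control).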

Kochia (Kochia scoparia) [2] = experiment: Test A preemergence
Summary of the method: as §1

[3] = system: ragweed (common ragweed, Ambrosia elatior); experiment: Test A preemergence
Summary of the method: as §1

[4] = system: ryegrass, Italian (Italian ryegrass, Lolium multiflorum); experiment: Test A preemergence
Summary of the method: as §1

[5] = system: giant foxtail (Setaria faberii); experiment: Test A preemergence
Summary of the method: as §1

[6] = system: pigweed (Amaranthus retroflexus); experiment: Test A preemergence
[7] = system: ducksalad (Heteranthera limosa); experiment: Test B flooded paddy test; conditions: Flood, 250 g ai/ha; 0 to 100 scale where 0 is no effect and 100 is complete control; 13 to 15 d
Summary of the method: (§2)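 Flooding to 3 cm over soil accompanied treatment, which consisted of adding compound to the standing water around 2-leaf plants; depth was then maintained. Visual assessment versus controls followed at 13 to 15 d (scale 0–100, 0 meaning no effect).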

[8] = system: barnyardgrass (Echinochloa crus-galli); experiment: Test B flooded paddy test; conditions: Flood, 250 g ai/ha; 0 to 100 scale where 0 is no effect and 100 is complete control; 13 to 15 d
Summary of the method: as §2

rice (Oryra sativa) = experiment: Test B flooded paddy test; conditions: Flood, 250 g ai/ha; 0 to 100 scale where 0 is no effect and 100 is complete control; 13 to 15 d
Summary of the method: as §2

[9] = system: sedge, umbrella (small-flower umbrella sedge, Cyperus difformis); experiment: Test B flooded paddy test; conditions: Flood, 250 g ai/ha; 0 to 100 scale where 0 is no effect and 100 is complete control; 13 to 15 d
Summary of the method: as §2

[10] = system: ducksalad (Heteranthera limosa); experiment: Test C flooded paddy test; conditions: Flood; for Plant response rating (scale of 0 to 100), Ducksalad: 0 is no effect, 100 is complete control
From the text: (§3) Plant species in the flooded paddy test consisted of rice (Oryza sativa), sedge, umbrella (small-flower umbrella sedge, Cyperus difformis), ducksalad (Heteranthera limosa), and barnyardgrass (Echinochloa crus-galli) grown to the 2-leaf stage for testing. At time of treatment, test pots were flooded to 3 cm above the soil surface, treated by application of test compounds directly to the paddy water, and then maintained at that water depth for the duration of the test. Treated plants and controls were maintained in a greenhouse for 13 to 15 d, after which time all species were compared to controls and visually evaluated. Plant response ratings, summarized in Table C, are based on a scale of 0 to 100 where 0 is no effect and 100 is complete control. A dash (-) response means no test result.

[11] = system: barnyardgrass (Echinochloa crus-galli); experiment: Test C flooded paddy test; conditions: Flood; for Plant response rating (scale of 0 to 100), Barnyardgrass: 0 is no effect, 100 is complete control
From the text: as §3

rice (Oryza sativa) = experiment: Test C flooded paddy test; conditions: Flood; for Plant response rating (scale of 0 to 100), Rice: 0 is no effect, 100 is complete control
From the text: as §3

[12] = system: sedge, umbrella (small-flower umbrella sedge, Cyperus difformis); experiment: Test C flooded paddy test; conditions: Flood; for Plant response rating (scale of 0 to 100), Sedge, Umbrella: 0 is no effect, 100 is complete control
From the text: as §3

[13] = system: barnyardgrass (Echinochloa crus-galli); experiment: Test A postemergence
Summary of the method: as §1

[14] = system: wheat (Triticum aestivum); experiment: Test A postemergence
Summary of the method: as §1

Kochia (Kochia scoparia) [15] = experiment: Test A postemergence
Summary of the method: as §1

[16] = system: Galium (catchweed bedstraw, Galium aparine); experiment: Test A postemergence
Summary of the method: as §1

corn (Zea mays) = experiment: Test A postemergence
Summary of the method: as §1

[17] = system: ragweed (common ragweed, Ambrosia elatior); experiment: Test A postemergence
Summary of the method: as §1

[18] = system: blackgrass (Alopecurus myosuroides); experiment: Test A postemergence
Summary of the method: as §1

[19] = system: ryegrass, Italian (Italian ryegrass, Lolium multiflorum); experiment: Test A postemergence
Summary of the method: as §1

[20] = system: giant foxtail (Setaria faberii); experiment: Test A postemergence
Summary of the method: as §1

[21] = system: pigweed (Amaranthus retroflexus); experiment: Test A postemergence
Summary of the method: as §1

[22] = 125 g ai/ha, Preemergence, visual injury after approximately 10 d, 0 to 100 scale where 0 is no effect and 100 is complete control
[23] = Preemergence, 500 g ai/ha, visual injury approx. 10 d
[24] = 125 g ai/ha, postemergence, visual rating after approx. 10 d, 0 to 100 scale (0 no effect, 100 complete control)
[25] = Postemergence, 500 g ai/ha, 0 to 100 scale where 0 is no effect and 100 is complete control
[26] = 500 g ai/ha, preemergence, 0 to 100 scale, 0 = no effect, 100 = complete control
[27] = 31 g ai/ha, scale 0 to 100 (0 no effect, 100 complete control), 13 to 15 d
[28] = 500 g ai/ha, postemergence, visual injury, 0 to 100 scale (0 no effect, 100 complete control), approx. 10 d

In the case of `C=CCN1CC(c2cccc(C(F)(F)F)c2)C(C(=O)Nc2cccc(F)c2F)C1=O` (centres unmarked) [Compound 606], the “Plant response rating, Barnyardgrass” value [1, 22] is reported as 50, the “Barnyardgrass plant response rating (0 to 100 scale, 0 is no effect, 100 is complete control)” value [1, 23] is reported as 80 and the “Plant response rating, Kochia” value (Kochia (Kochia scoparia) [2]; [22]) is reported as 0. For the same molecule, the “Kochia plant response rating (0 to 100 scale, 0 is no effect, 100 is complete control)” value (Kochia (Kochia scoparia) [2]; [23]) was 0, the “Plant response rating, Ragweed” value [3, 22] was 0 and the “Ragweed plant response rating (0 to 100 scale, 0 is no effect, 100 is complete control)” value [3, 23] was 0. The “Plant response rating, Ryegrass, Italian” value [4, 22] was 0, the “Ryegrass, Italian plant response rating (0 to 100 scale, 0 is no effect, 100 is complete control)” value [4, 23] was 0 and the “Plant response rating, Foxtail, Giant” value [5, 22] was 80. The “Foxtail, Giant plant response rating (0 to 100 scale, 0 is no effect, 100 is complete control)” value [5, 23] was 90, the “Plant response rating, Pigweed” value [6, 22] was 0 and the “Pigweed plant response rating (0 to 100 scale, 0 is no effect, 100 is complete control)” value [6, 23] was 0. The “Plant response rating, Ducksalad” value [7] was 0, the “Plant response rating, Barnyardgrass” value [8] was 50 and the “Plant response rating, Rice” value (rice (Oryra sativa)) was 0. For the same molecule, the “Plant response rating, Sedge, Umbrella” value [9] was 40, the “Plant response rating (scale of 0 to 100), Ducksalad” value ([10]; 31 g ai/ha) was 0 and the “Plant response rating (scale of 0 to 100), Ducksalad” value ([10]; 62 g ai/ha) was 0. The “Plant response rating (scale of 0 to 100), Ducksalad” value ([10]; 125 g ai/ha) was 50, the “Plant response rating (scale of 0 to 100), Ducksalad” value ([10]; 250 g ai/ha) was 70 and the “Plant response rating (scale of 0 to 100), Barnyardgrass” value ([11]; 31 g ai/ha) was 0. The “Plant response rating (scale of 0 to 100), Barnyardgrass” value ([11]; 62 g ai/ha) was 0, the “Plant response rating (scale of 0 to 100), Barnyardgrass” value ([11]; 125 g ai/ha) was 20 and the “Plant response rating (scale of 0 to 100), Barnyardgrass” value ([11]; 250 g ai/ha) was 40. For the same molecule, the “Plant response rating (scale of 0 to 100), Rice” value (rice (Oryza sativa); 31 g ai/ha) was 0, the “Plant response rating (scale of 0 to 100), Rice” value (rice (Oryza sativa); 62 g ai/ha) was 0 and the “Plant response rating (scale of 0 to 100), Rice” value (rice (Oryza sativa); 125 g ai/ha) was 0. The “Plant response rating (scale of 0 to 100), Rice” value (rice (Oryza sativa); 250 g ai/ha) was 0, the “Plant response rating (scale of 0 to 100), Sedge, Umbrella” value ([12]; 31 g ai/ha) was 0 and the “Plant response rating (scale of 0 to 100), Sedge, Umbrella” value ([12]; 62 g ai/ha) was 0. For the same molecule, the “Plant response rating (scale of 0 to 100), Sedge, Umbrella” value ([12]; 125 g ai/ha) was 0, the “Plant response rating (scale of 0 to 100), Sedge, Umbrella” value ([12]; 250 g ai/ha) was 0 and the “Plant response rating, Barnyardgrass” value [13, 24] was 50. The “Plant response rating, Barnyardgrass” value [13, 25] was 70, the “Plant response rating, Wheat” value [14, 24] was 0 and the “Plant response rating, Wheat” value [14, 25] was 0. For the same molecule, the “Plant response rating, Kochia” value (Kochia (Kochia scoparia) [15]; [24]) was 0, the “Plant response rating, Kochia” value (Kochia (Kochia scoparia) [15]; [25]) was 0 and the “Plant response rating, Galium” value [16, 24] was 60. The “Plant response rating, Galium” value [16, 25] was 70, the “Plant response rating, Corn” value (corn (Zea mays); [24]) was 0 and the “Plant response rating, Corn” value (corn (Zea mays); [25]) was 0. The “Plant response rating, Ragweed” value [17, 24] was 0, the “Plant response rating, Ragweed” value [17, 25] was 0 and the “Plant response rating, Blackgrass” value [18, 24] was 0. The “Plant response rating, Blackgrass” value [18, 25] was 40, the “Plant response rating, Ryegrass, Italian” value [19, 24] was 0 and the “Plant response rating, Ryegrass, Italian” value [19, 25] was 0. The “Plant response rating, Foxtail, Giant” value [20, 24] was 70, the “Plant response rating, Foxtail, Giant” value [20, 25] was 90 and the “Plant response rating, Pigweed” value [21, 24] was 50. The “Plant response rating, Pigweed” value [21, 25] was 70.

In the case of `CC(C)Oc1cccc(C2CN(C)C(=O)C2C(=O)Nc2ccccc2F)c1` (centres unmarked) [Compound 650], the “Plant response rating, Barnyardgrass” value [1, 22] is reported as 100, the “Plant response rating, Barnyardgrass” value [1, 26] is reported as 100 and the “Plant response rating, Kochia” value (Kochia (Kochia scoparia) [2]; [22]) is reported as 30. The “Plant response rating, Kochia” value (Kochia (Kochia scoparia) [2]; [26]) was 70, the “Plant response rating, Ragweed” value [3, 22] was 0 and the “Plant response rating, Ragweed” value [3, 26] was 80. For the same molecule, the “Plant response rating, Ryegrass, Italian” value [4, 22] was 40, the “Plant response rating, Ryegrass, Italian” value [4, 26] was 90 and the “Plant response rating, Foxtail, Giant” value [5, 22] was 100. For the same molecule, the “Plant response rating, Foxtail, Giant” value [5, 26] was 100, the “Plant response rating, Pigweed” value [6, 22] was 50 and the “Plant response rating, Pigweed” value [6, 26] was 90. For the same molecule, the “Plant response rating, Ducksalad” value [7] was 100, the “Plant response rating, Barnyardgrass” value [8] was 80 and the “Plant response rating, Rice” value (rice (Oryra sativa)) was 0. The “Plant response rating, Sedge, Umbrella” value [9] was 0, the “Plant response rating, Ducksalad” value [10, 27] was 60 and the “Plant response rating (scale of 0 to 100), Ducksalad” value ([10]; 62 g ai/ha) was 70. For the same molecule, the “Plant response rating (scale of 0 to 100), Ducksalad” value ([10]; 125 g ai/ha) was 90, the “Plant response rating (scale of 0 to 100), Ducksalad” value ([10]; 250 g ai/ha) was 95 and the “Plant response rating, Barnyardgrass” value [11, 27] was 20. The “Plant response rating (scale of 0 to 100), Barnyardgrass” value ([11]; 62 g ai/ha) was 20, the “Plant response rating (scale of 0 to 100), Barnyardgrass” value ([11]; 125 g ai/ha) was 60 and the “Plant response rating (scale of 0 to 100), Barnyardgrass” value ([11]; 250 g ai/ha) was 75. The “Plant response rating, Rice” value (rice (Oryza sativa); [27]) was 0, the “Plant response rating (scale of 0 to 100), Rice” value (rice (Oryza sativa); 62 g ai/ha) was 0 and the “Plant response rating (scale of 0 to 100), Rice” value (rice (Oryza sativa); 125 g ai/ha) was 0. For the same molecule, the “Plant response rating (scale of 0 to 100), Rice” value (rice (Oryza sativa); 250 g ai/ha) was 0, the “Plant response rating, Sedge, Umbrella” value [12, 27] was 0 and the “Plant response rating (scale of 0 to 100), Sedge, Umbrella” value ([12]; 62 g ai/ha) was 0. For the same molecule, the “Plant response rating (scale of 0 to 100), Sedge, Umbrella” value ([12]; 125 g ai/ha) was 0, the “Plant response rating (scale of 0 to 100), Sedge, Umbrella” value ([12]; 250 g ai/ha) was 0 and the “Plant response rating, Barnyardgrass” value [13, 24] was 90. For the same molecule, the “Plant response rating, Barnyardgrass” value [13, 28] was 90, the “Plant response rating, Wheat” value [14, 24] was 30 and the “Plant response rating, Wheat” value [14, 28] was 70. The “Plant response rating, Kochia” value (Kochia (Kochia scoparia) [15]; [24]) was 0, the “Plant response rating, Kochia” value (Kochia (Kochia scoparia) [15]; [28]) was 40 and the “Plant response rating, Galium” value [16, 24] was 50. For the same molecule, the “Plant response rating, Galium” value [16, 28] was 70, the “Plant response rating, Corn” value (corn (Zea mays); [24]) was 40 and the “Plant response rating, Corn” value (corn (Zea mays); [28]) was 90. The “Plant response rating, Ragweed” value [17, 24] was 0, the “Plant response rating, Ragweed” value [17, 28] was 30 and the “Plant response rating, Blackgrass” value [18, 24] was 50. For the same molecule, the “Plant response rating, Blackgrass” value [18, 28] was 50, the “Plant response rating, Ryegrass, Italian” value [19, 24] was 60 and the “Plant response rating, Ryegrass, Italian” value [19, 28] was 70. The “Plant response rating, Foxtail, Giant” value [20, 24] was 90, the “Plant response rating, Foxtail, Giant” value [20, 28] was 90 and the “Plant response rating, Pigweed” value [21, 24] was 0. For the same molecule, the “Plant response rating, Pigweed” value [21, 28] was 0.
